Experimental data published in article PMC7180572, “5-Alkylamino-N-phenylpyrazine-2-carboxamides: Design, Preparation, and Antimycobacterial Evaluation” (Molecules, 2020).
Values after ≈ are worked out from the molar mass of the structure shown. Where two headings read alike, the source gives them in different places.

What was measured:
[1] = test system: Pseudomonas aeruginosa ATCC 27853, CCM 3955; test: Antibacterial microdilution broth method (EUCAST); type: cell-based; details: read-out: MIC PA
[2] = test system: Mycobacterium smegmatis DSM 43465 (ATCC 607); test: Microdilution broth, modified Microplate Alamar Blue Assay, whole cell growth inhibition; type: cell-based; details: Mycolicibacterium smegmatis, read-out: MIC Mycobacterium smegmatis
[3] = test system: HepG2 cells; test: HepG2 cytotoxicity, CellTiter 96 (MTS) assay; type: cell-based, human; details: Homo sapiens, HepG2, 24 h, read-out: HepG2 IC50
[4] = test system: Staphylococcus aureus spp.aureus ATCC 29213, CCM 4223; test: Antibacterial microdilution broth method (EUCAST); type: cell-based; details: read-out: MIC SA
[5] = test system: Candida tropicalis ATCC 750, CCM 8264; test: Antifungal microdilution broth method (EUCAST); type: cell-based; details: read-out: MIC CT
[6] = test system: Klebsiella pneumoniae ATCC 10031, CCM 4415; test: Antibacterial microdilution broth method (EUCAST)
[7] = test system: Acinetobacter baumanii ATCC 19606, DSM 30007; test: Antibacterial microdilution broth method (EUCAST); type: cell-based; details: Acinetobacter baumannii
[8] = test system: Trichophyton interdigitale ATCC 9533, CCM 8377; test: Antifungal microdilution broth method (EUCAST); type: cell-based; details: read-out: MIC TI
[9] = test system: Staphylococcus epidermidis ATCC 12228, CCM 4418; test: Antibacterial microdilution broth method (EUCAST); type: cell-based; details: read-out: MIC SE
[10] = test system: Aspergillus flavus CCM 8363; test: Antifungal microdilution broth method (EUCAST); type: cell-based; details: read-out: MIC AFla
[11] = test system: Candida krusei ATCC 6258, CCM 8271; test: Antifungal microdilution broth method (EUCAST); type: cell-based; details: Pichia kudriavzevii, read-out: MIC CK
[12] = test system: Escherichia coli ATCC 25922, CCM 3954; test: Antibacterial microdilution broth method (EUCAST); type: cell-based; details: read-out: MIC EC
[13] = test system: Mycobacterium aurum DSM 43999 (ATCC 23366); test: Microdilution broth, modified Microplate Alamar Blue Assay, whole cell growth inhibition; type: cell-based; details: Mycolicibacterium aurum, read-out: MIC Mycobacterium aurum
[14] = test system: Candida albicans ATCC 24433, CCM 8320; test: Antifungal microdilution broth method (EUCAST); type: cell-based; details: read-out: MIC CA
[15] = test system: Candida parapsilosis ATCC 22019, CCM 8260; test: Antifungal microdilution broth method (EUCAST); type: cell-based; details: Lodderomyces parapsilosis, read-out: MIC CP
[16] = test system: Absidia corymbifera CCM 8077 (Lichtheimia corymbifera); test: Antifungal microdilution broth method (EUCAST); type: cell-based; details: read-out: MIC AC
[17] = test system: Aspergillus fumigatus ATCC 204305; test: Antifungal microdilution broth method (EUCAST); type: cell-based; details: read-out: MIC AF
[18] = test system: Mycobacterium tuberculosis H37Ra ITM-M006710 (ATCC 9431); test: Microdilution broth, modified Microplate Alamar Blue Assay, whole cell growth inhibition; type: cell-based; details: Mycobacterium tuberculosis; in vitro, Middlebrook 7H9 broth, resazurin; read-out: MIC Mtb H37Ra
[19] = test system: Enterococcus faecalis ATCC 29212, CCM 4224; test: Antibacterial microdilution broth method (EUCAST); type: cell-based; details: read-out: MIC EF
[20] = test system: Staphylococcus aureus methicillin resistant ATCC 43300, CCM 4750; test: microbe, parasite or virus in culture; type: cell-based; details: ATCC 43300 / CCM 4750 / MRSA, read-out: MIC MRSA

Question: Which MIC ([1]; 72 h) does the source give for `CCCCCCCNc1cnc(C(=O)Nc2cccc(C(F)(F)F)c2)cn1` [Compound 1e, 5-(Heptylamino)-N-(3-(trifluoromethyl)phenyl)pyrazine-2-carboxamide] here?
Answer: > 500 µM

Question: And the MIC ([1]; 120 h)?
Answer: > 500 µM

Question: And the MIC [2]?
Answer: ≥ 500 µg/mL

Question: What about the IC50 [3] of the same compound?
Answer: 223 µM

Question: And the MIC ([4]; 24 h)?
Answer: > 500 µM

Question: And the MIC ([4]; 48 h)?
Answer: > 500 µM

Question: What about the MIC ([5]; 24 h) of the same compound?
Answer: > 500 µM

Question: What about the MIC ([5]; 48 h) of the same compound?
Answer: > 500 µM

Question: And the “MIC KP” value ([6]; 24h)?
Answer: > 500 µM

Question: And the “MIC KP” value ([6]; 48h)?
Answer: > 500 µM

Question: What about the MIC ([7]; 24h) of the same compound?
Answer: > 500 µM

Question: And the MIC ([7]; 48h)?
Answer: > 500 µM

Question: What about the MIC ([8]; 72 h) of the same compound?
Answer: > 500 µM

Question: What about the MIC ([8]; 120 h) of the same compound?
Answer: > 500 µM

Question: What about the MIC ([9]; 24 h) of the same compound?
Answer: > 500 µM

Question: What about the MIC ([9]; 48 h) of the same compound?
Answer: > 500 µM

Question: What about the MIC ([10]; CCM8363, 24 h) of the same compound?
Answer: > 500 µM

Question: And the MIC ([10]; CCM8363, 48 h)?
Answer: > 500 µM

Question: And the MIC ([11]; 24 h)?
Answer: > 500 µM

Question: And the MIC ([11]; 48 h)?
Answer: > 500 µM

Question: And the MIC ([12]; 24 h)?
Answer: > 500 µM

Question: And the MIC ([12]; 48 h)?
Answer: > 500 µM

Question: And the MIC [13]?
Answer: 62.5 µg/mL (≈ 164 µM)

Question: And the MIC ([14]; 24 h)?
Answer: > 500 µM

Question: And the MIC ([14]; 48 h)?
Answer: > 500 µM

Question: And the MIC ([15]; 24 h)?
Answer: > 500 µM

Question: What about the MIC ([15]; 48 h) of the same compound?
Answer: > 500 µM

Question: What about the MIC ([16]; CCM8077, 24 h) of the same compound?
Answer: > 500 µM

Question: And the MIC ([16]; CCM8077, 48 h)?
Answer: > 500 µM

Question: What about the MIC ([17]; ATCC204305, 24 h) of the same compound?
Answer: > 500 µM

Question: And the MIC ([17]; ATCC204305, 48 h)?
Answer: > 500 µM

Question: What about the MIC [18] of the same compound?
Answer: ≥ 500 µg/mL

Question: And the MIC ([19]; 24 h)?
Answer: > 500 µM

Question: What about the MIC ([19]; 48 h) of the same compound?
Answer: > 500 µM

Question: What about the MIC ([20]; 24 h) of the same compound?
Answer: > 500 µM

Question: What about the MIC ([20]; 48 h) of the same compound?
Answer: > 500 µM

Question: And the melting point?
Answer: 148 to 149 °C

Question: Which results are given for `CCCCCCCCNc1cnc(C(=O)Nc2cccc(C(F)(F)F)c2)cn1` [Compound 1f, 5-(Octylamino)-N-(3-(trifluoromethyl)phenyl)pyrazine-2-carboxamide]?
Answer: MIC ([1]; 72 h): > 500 µM; MIC ([1]; 120 h): > 500 µM; MIC [2]: ≥ 500 µg/mL; IC50 [3]: 66.2 µM; MIC ([4]; 24 h): > 500 µM; MIC ([4]; 48 h): > 500 µM; MIC ([5]; 24 h): > 500 µM; MIC ([5]; 48 h): > 500 µM; MIC KP ([6]; 24h): > 500 µM; MIC KP ([6]; 48h): > 500 µM; MIC ([7]; 24h): > 500 µM; MIC ([7]; 48h): > 500 µM; MIC ([8]; 72 h): > 500 µM; MIC ([8]; 120 h): > 500 µM; MIC ([9]; 24 h): > 500 µM; MIC ([9]; 48 h): > 500 µM; MIC ([10]; CCM8363, 24 h): > 500 µM; MIC ([10]; CCM8363, 48 h): > 500 µM; MIC ([11]; 24 h): > 500 µM; MIC ([11]; 48 h): > 500 µM; MIC ([12]; 24 h): > 500 µM; MIC ([12]; 48 h): > 500 µM; MIC [13]: ≥ 500 µg/mL; MIC ([14]; 24 h): > 500 µM; MIC ([14]; 48 h): > 500 µM; MIC ([15]; 24 h): > 500 µM; MIC ([15]; 48 h): > 500 µM; MIC ([16]; CCM8077, 24 h): > 500 µM; MIC ([16]; CCM8077, 48 h): > 500 µM; MIC ([17]; ATCC204305, 24 h): > 500 µM; MIC ([17]; ATCC204305, 48 h): > 500 µM; MIC [18]: ≥ 500 µg/mL; MIC ([19]; 24 h): > 500 µM; MIC ([19]; 48 h): > 500 µM; MIC ([20]; 24 h): > 500 µM; MIC ([20]; 48 h): > 500 µM; melting point: 135 to 136 °C

Question: Which MIC ([1]; 72 h) does the source give for `CCCCNc1cnc(C(=O)Nc2ccc(C)cc2)cn1` [Compound 4b, 5-(Butylamino)-N-(p-tolyl)pyrazine-2-carboxamide] here?
Answer: > 125 µM

Question: What about the MIC ([1]; 120 h) of the same compound?
Answer: > 125 µM

Question: What about the MIC [2] of the same compound?
Answer: ≥ 250 µg/mL

Question: What about the IC50 [3] of the same compound?
Answer: > 50 µM

Question: What about the MIC ([4]; 24 h) of the same compound?
Answer: > 125 µM

Question: And the MIC ([4]; 48 h)?
Answer: > 125 µM

Question: What about the MIC ([5]; 24 h) of the same compound?
Answer: > 125 µM

Question: What about the MIC ([5]; 48 h) of the same compound?
Answer: > 125 µM

Question: And the “MIC KP” value ([6]; 24h)?
Answer: > 125 µM

Question: And the “MIC KP” value ([6]; 48h)?
Answer: > 125 µM

Question: What about the MIC ([7]; 24h) of the same compound?
Answer: > 125 µM

Question: And the MIC ([7]; 48h)?
Answer: > 125 µM

Question: And the MIC ([8]; 72 h)?
Answer: > 125 µM

Question: What about the MIC ([8]; 120 h) of the same compound?
Answer: > 125 µM

Question: And the MIC ([9]; 24 h)?
Answer: > 125 µM

Question: What about the MIC ([9]; 48 h) of the same compound?
Answer: > 125 µM

Question: And the MIC ([10]; CCM8363, 24 h)?
Answer: > 125 µM

Question: And the MIC ([10]; CCM8363, 48 h)?
Answer: > 125 µM

Question: What about the MIC ([11]; 24 h) of the same compound?
Answer: > 125 µM

Question: What about the MIC ([11]; 48 h) of the same compound?
Answer: > 125 µM

Question: What about the MIC ([12]; 24 h) of the same compound?
Answer: > 125 µM

Question: And the MIC ([12]; 48 h)?
Answer: > 125 µM

Question: And the MIC [13]?
Answer: ≥ 250 µg/mL

Question: What about the MIC ([14]; 24 h) of the same compound?
Answer: > 125 µM

Question: And the MIC ([14]; 48 h)?
Answer: > 125 µM

Question: What about the MIC ([15]; 24 h) of the same compound?
Answer: > 125 µM

Question: And the MIC ([15]; 48 h)?
Answer: > 125 µM

Question: And the MIC ([16]; CCM8077, 24 h)?
Answer: > 125 µM

Question: And the MIC ([16]; CCM8077, 48 h)?
Answer: > 125 µM

Question: And the MIC ([17]; ATCC204305, 24 h)?
Answer: > 125 µM

Question: What about the MIC ([17]; ATCC204305, 48 h) of the same compound?
Answer: > 125 µM

Question: And the MIC [18]?
Answer: ≥ 250 µg/mL

Question: And the MIC ([19]; 24 h)?
Answer: > 125 µM

Question: And the MIC ([19]; 48 h)?
Answer: > 125 µM

Question: What about the MIC ([20]; 24 h) of the same compound?
Answer: > 125 µM

Question: What about the MIC ([20]; 48 h) of the same compound?
Answer: > 125 µM

Question: And the melting point?
Answer: 162.6 to 163.6 °C
